From US20250296916A1, “BICYCLIC PIPERAZINONES AND THERAPEUTIC USES THEREOF” (Cytokinetics, Inc., priority 2022, published 2025) come the findings set out here.

This test concerns rabbit skeletal myofibrils (approximately 90% fast fibers). Description: Activation of fast skeletal myofibrils (PUMA coupled-enzyme ATPase assay). It is filed as biochemical. Conditions: concentration at which the compound increased the enzymatic activity by 40%; calcium at pCa25; PM12 buffer pH 6.8. As to the method:
Preparation of fast skeletal myofibrils: Rabbit skeletal myofibrils were prepared based upon the method of Herrmann et al. (Biochem. 32 (28): 7255-7263 (1993). Myofibrils were prepared from rabbit psoas muscle purchased from Pel-Freez Biologicals (Arkansas) within 2 days of ordering, stored on ice. Minced muscle was homogenized in 10 volumes of ice-cold “standard” buffer (50 mM Tris, pH 7.4, 0.1 M KOAc, 5 mM KCl, 2 mM dithiothreitol (DTT), 0.2 mM phenylmethylsulfonyl fluoride (PMSF), 10 μM leupeptin, 5 μM pepstatin, and 0.5 mM sodium azide) containing 5 mM ethylenediaminetetraacetic acid (EDTA) and 0.5% Triton X-100 using an Omni-Macro homogenizer. Myofibrils were recovered by low speed centrifugation (3000 rpm for 10 minutes) and washed 2 times in the Triton X-100 containing buffer to ensure removal of cellular membrane. Following the Triton washes, myofibrils were washed 3 times in “standard” buffer containing 2 mM magnesium acetate. A final wash in assay buffer (12 mM piperazine-1,4-bis(2-ethanesulfonic acid) (PIPES), pH 6.8, 60 mM KCl, 1 mM DTT) was performed and brought to 10% sucrose for flash freezing in liquid nitrogen and storage at −80° C.
Activation of Fast Skeletal Myofibrils: Fast fiber activators were identified by measuring the enzymatic activity of muscle myofibril preparations using the proprietary PUMA (trademark) (see, e.g., U.S. Pat. Nos. 6,410,254, 6,743,599, 7,202,051, and 7,378,254) assay system. Myofibril preparations consisted of rabbit skeletal muscle (approximately 90% fast fibers) that had been mechanically homogenized and washed with a detergent (Triton X-100) to remove cellular membranes. This preparation retained all of the sarcomeric components in a native conformation and the enzymatic activity was still regulated by calcium. Compounds were tested using a myofibril suspension and a level of calcium sufficient to increase enzymatic activity of the myofibrils to 25% of their maximal rate (termed pCa25). Enzymatic activity was tracked via a pyruvate kinase and lactate dehydrogenase-coupled enzyme system. This assay regenerates myosin-produced ADP into ATP by oxidizing NADH, producing an absorbance change at 340 nm. The buffering system was 12 mM PIPES, 2 mM MgCl2, 1 mM DTT at pH 6.8 (PM12 buffer). […] In Table 3, “Example Compound” refers to the compound labeled with the same number in Table 2.
As to `CCC[C@H]1C(=O)Nc2ccccc2N1C(=O)c1ccc(N(C)C2CC2)nc1` [Compound 37, (S)-4-(6-(cyclopropyl(methyl)amino)nicotinoyl)-3-propyl-3,4-dihydroquinoxalin-2(1H)-one], the AC1.4 was determined as 0.58 µM.

For `CCC[C@H]1C(=O)Nc2ccccc2N1C(=O)c1ccc(N2CC(F)C2)nc1` [Compound 38, (S)-4-(6-(3-fluoroazetidin-1-yl)nicotinoyl)-3-propyl-3,4-dihydroquinoxalin-2(1H)-one], the AC1.4 is 1.58 µM.

As for `CCC[C@H]1C(=O)Nc2ccccc2N1C(=O)c1ccc(N(C)Cc2ccccc2)nc1` [Compound 39, (S)-4-(6-(benzyl(methyl)amino)nicotinoyl)-3-propyl-3,4-dihydroquinoxalin-2(1H)-one], the AC1.4 was found to be 0.27 µM.

For `CCC[C@H]1C(=O)Nc2ccccc2N1C(=O)c1ccc(N2CC(OC)C2)nc1` [Compound 40, (S)-4-(6-(3-methoxyazetidin-1-yl)nicotinoyl)-3-propyl-3,4-dihydroquinoxalin-2(1H)-one], the AC1.4 worked out at 2.37 µM.

Take `CCC[C@H]1C(=O)Nc2ccccc2N1C(=O)c1ccc(N2CCC(F)C2)nc1` (stereo partly drawn) [Compound 41, (3S)-4-(6-(3-fluoropyrrolidin-1-yl)nicotinoyl)-3-propyl-3,4-dihydroquinoxalin-2(1H)-one]: the AC1.4 is 1.63 µM.

Consider `CCC[C@H]1C(=O)Nc2ccccc2N1C(=O)c1ccc(N2CC(F)(F)C2)nc1` [Compound 42, (S)-4-(6-(3,3-difluoroazetidin-1-yl)nicotinoyl)-3-propyl-3,4-dihydroquinoxalin-2(1H)-one], for which the AC1.4 turned out to be 2.34 µM.

As to `CCC[C@H]1C(=O)Nc2ccccc2N1C(=O)c1ccc(N2CCC(F)(F)C2)nc1` [Compound 43, (S)-4-(6-(3,3-difluoropyrrolidin-1-yl)nicotinoyl)-3-propyl-3,4-dihydroquinoxalin-2(1H)-one], the AC1.4 was 2.78 µM.

Turning to `CCC[C@H]1C(=O)Nc2ccccc2N1C(=O)c1ccc(N(C)CCC(F)(F)F)nc1` [Compound 44, (S)-4-(6-(methyl(3,3,3-trifluoropropyl)amino)nicotinoyl)-3-propyl-3,4-dihydroquinoxalin-2(1H)-one], the AC1.4 was 2.61 µM.

With `CCC[C@H]1C(=O)Nc2ccccc2N1C(=O)c1cn(C)nc1C` [Compound 45, (S)-4-(1,3-dimethyl-1H-pyrazole-4-carbonyl)-3-propyl-3,4-dihydroquinoxalin-2(1H)-one], the AC1.4 was determined as 0.2 µM.

On to `CCC[C@H]1C(=O)Nc2ccccc2N1C(=O)NC1CCCCC1` [Compound 46, (S)-N-cyclohexyl-3-oxo-2-propyl-3,4-dihydroquinoxaline-1(2H)-carboxamide], for which the AC1.4 was found to be 0.47 µM.

Turning to `CCC[C@H]1C(=O)Nc2ccccc2N1C(=O)Nc1cccnc1` [Compound 47, (S)-3-oxo-2-propyl-N-(pyridin-3-yl)-3,4-dihydroquinoxaline-1(2H)-carboxamide], the AC1.4 was found to be 1.51 µM.

With `CCC[C@H]1C(=O)Nc2ccccc2N1C(=O)Nc1ccncc1` [Compound 48, (S)-3-oxo-2-propyl-N-(pyridin-4-yl)-3,4-dihydroquinoxaline-1(2H)-carboxamide], the AC1.4 turned out to be 1.08 µM.

Consider `CCC[C@H]1C(=O)Nc2ccccc2N1C(=O)NCc1ccccc1` [Compound 49, (S)-N-benzyl-3-oxo-2-propyl-3,4-dihydroquinoxaline-1(2H)-carboxamide], for which the AC1.4 was determined as 2.08 µM.

Turning to `CCC[C@H]1C(=O)Nc2ccccc2N1C(=O)N[C@@H](C)c1ccccc1` [Compound 50, (S)-3-oxo-N-((S)-1-phenylethyl)-2-propyl-3,4-dihydroquinoxaline-1(2H)-carboxamide], the AC1.4 worked out at 2.36 µM.

`CCC[C@H]1C(=O)Nc2ccccc2N1C(=O)NCC1CCCCC1` [Compound 51, (S)-N-(cyclohexylmethyl)-3-oxo-2-propyl-3,4-dihydroquinoxaline-1(2H)-carboxamide]: the AC1.4 stood at 0.48 µM.

On to `CCC[C@H]1C(=O)Nc2ccccc2N1C(=O)N1CCc2ccccc21` [Compound 52, (S)-4-(indoline-1-carbonyl)-3-propyl-3,4-dihydroquinoxalin-2(1H)-one], for which the AC1.4 was 0.58 µM.

In the case of `CCC[C@H]1C(=O)Nc2ccccc2N1C(=O)Nc1ccccc1OC` [Compound 53, (S)-N-(2-methoxyphenyl)-3-oxo-2-propyl-3,4-dihydroquinoxaline-1(2H)-carboxamide], the AC1.4 came to 0.55 µM.

Consider `CCC[C@H]1C(=O)Nc2ccccc2N1C(=O)Nc1cccc(OC)c1` [Compound 54, (S)-N-(3-methoxyphenyl)-3-oxo-2-propyl-3,4-dihydroquinoxaline-1(2H)-carboxamide], for which the AC1.4 amounted to 0.31 µM.

For `CCC[C@H]1C(=O)Nc2ccccc2N1C(=O)Nc1ccc(OC)cc1` [Compound 55, (S)-N-(4-methoxyphenyl)-3-oxo-2-propyl-3,4-dihydroquinoxaline-1(2H)-carboxamide], the AC1.4 was determined as 1.88 µM.

Turning to `CCC[C@H]1C(=O)Nc2ccccc2N1C(=O)Nc1ccccc1F` [Compound 56, (S)-N-(2-fluorophenyl)-3-oxo-2-propyl-3,4-dihydroquinoxaline-1(2H)-carboxamide], the AC1.4 stood at 0.42 µM.

As to `CCC[C@H]1C(=O)Nc2ccccc2N1C(=O)Nc1cccc(F)c1` [Compound 57, (S)-N-(3-fluorophenyl)-3-oxo-2-propyl-3,4-dihydroquinoxaline-1(2H)-carboxamide], the AC1.4 worked out at 0.24 µM.

Take `CCC[C@H]1C(=O)Nc2ccccc2N1C(=O)Nc1ccc(F)cc1` [Compound 58, (S)-N-(4-fluorophenyl)-3-oxo-2-propyl-3,4-dihydroquinoxaline-1(2H)-carboxamide]: the AC1.4 came to 0.26 µM.

As to `CCC[C@H]1C(=O)Nc2ccccc2N1C(=O)Nc1cnn(C)c1` [Compound 59, (S)-N-(1-methyl-1H-pyrazol-4-yl)-3-oxo-2-propyl-3,4-dihydroquinoxaline-1(2H)-carboxamide], the AC1.4 stood at 1.96 µM.

Take `CCC[C@H]1C(=O)Nc2ccccc2N1C(=O)Nc1ccccc1C` [Compound 60, (S)-3-oxo-2-propyl-N-(o-tolyl)-3,4-dihydroquinoxaline-1(2H)-carboxamide]: the AC1.4 was 0.82 µM.

With `CCC[C@H]1C(=O)Nc2ccccc2N1C(=O)Nc1cccc(C)c1` [Compound 61, (S)-3-oxo-2-propyl-N-(m-tolyl)-3,4-dihydroquinoxaline-1(2H)-carboxamide], the AC1.4 was 0.43 µM.

Consider `CCC[C@H]1C(=O)Nc2ccccc2N1C(=O)Nc1ccc(C)cc1` [Compound 62, (S)-3-oxo-2-propyl-N-(p-tolyl)-3,4-dihydroquinoxaline-1(2H)-carboxamide], for which the AC1.4 came out at 1.39 µM.

Take `CC[C@H](C)[C@H]1C(=O)Nc2ccccc2N1C(=O)c1cnn(C)c1` [Compound 63, (S)-3-((S)-sec-butyl)-4-(1-methyl-1H-pyrazole-4-carbonyl)-3,4-dihydroquinoxalin-2(1H)-one]: the AC1.4 is 0.04 µM.

As for `CCC[C@H]1C(=O)Nc2ccc(Cl)cc2N1C(=O)c1cnn(C)c1` [Compound 64, (S)-6-Chloro-4-(1-methyl-1H-pyrazole-4-carbonyl)-3-propyl-3,4-dihydroquinoxalin-2(1H)-one], the AC1.4 is 0.24 µM.

Take `CCC[C@H]1C(=O)Nc2ccccc2N1C(=O)c1ccc2cncn2c1` [Compound 65, (S)-4-(imidazo[1,5-a]pyridine-6-carbonyl)-3-propyl-3,4-dihydroquinoxalin-2(1H)-one]: the AC1.4 stood at 0.39 µM.

With `CCC[C@H]1C(=O)Nc2ccccc2N1C(=O)c1ccn2cncc2c1` [Compound 66, (S)-4-(imidazo[1,5-a]pyridine-7-carbonyl)-3-propyl-3,4-dihydroquinoxalin-2(1H)-one], the AC1.4 turned out to be 0.17 µM.

`CCC[C@H]1C(=O)Nc2ccccc2N1C(=O)c1cnn(CCO)c1` [Compound 67, (S)-4-(1-(2-hydroxyethyl)-1H-pyrazole-4-carbonyl)-3-propyl-3,4-dihydroquinoxalin-2(1H)-one]: the AC1.4 worked out at 1.31 µM.

As to `CC(C)C[C@H]1C(=O)Nc2ccccc2N1C(=O)c1cnn(C)c1` [Compound 68, (S)-3-isobutyl-4-(1-methyl-1H-pyrazole-4-carbonyl)-3,4-dihydroquinoxalin-2(1H)-one], the AC1.4 turned out to be 0.16 µM.

For `CCC[C@H]1C(=O)Nc2cccc(Br)c2N1C(=O)c1cnn(C)c1` [Compound 69, (S)-5-bromo-4-(1-methyl-1H-pyrazole-4-carbonyl)-3-propyl-3,4-dihydroquinoxalin-2(1H)-one], the AC1.4 was 1.52 µM.
